Values joined by “and” are separate entries in the source; they are usually repeats but may differ in a detail not shown here. Equal entries are not always repeated. Where two headings read alike, the source gives them in different places.
Assays:
[1] = tested on: EGFR mutant expressing Ba/F3 cells; test: Cell viability, ALK inhibitors on Ba/F3 with any of the EGFR mutants (summary statements); assay type: cell-based, mouse; conditions: FIG. 6A-D, FIG. 7A-D
[2] = tested on: phosphorylation of EGFR and downstream signal transductions in parental line PC9; test: Western blotting of EGFR signal, PC9; assay type: cell-based, human; conditions: FIG. 10A, 10D
[3] = target: EGFR T790M/L858R mutant expressing Ba/F3 cells (Homo sapiens, UniProt P00533, T790M/L858R, cells depend on it); test: CellTiter-Glo cell viability, Ba/F3 EGFR mutant; assay type: cell-based, mouse; conditions: Table 5, ALK inhibitors, read-out: IC50 (nM) T/L
Experimental: (§1) Ba/F3 mutation lines were prepared in the same manner as above to determine the cell viabilities by CellTiter-Glo assay.

[4] = target: EGFR L858R mutant expressing Ba/F3 cells (Homo sapiens, UniProt P00533, L858R, cells depend on it); test: CellTiter-Glo cell viability, Ba/F3 EGFR mutant; assay type: cell-based, mouse; conditions: read-out: IC50 (nM) L858R
Experimental: as §1

[5] = tested on: phosphorylation of EGFR and downstream signal transductions in T790M/exon 19 deletion mutant expressing PC9 cell line; test: Western blotting of EGFR signal, PC9 T790M; assay type: cell-based, human; conditions: FIG. 10B, 10D
[6] = tested on: EGFR signal transductions in EGFR mutants expressing Ba/F3 cells; test: Western blotting of EGFR signal transductions in EGFR mutants expressing Ba/F3 cells (summary statements); assay type: cell-based, mouse; conditions: FIG. 8A-D; L858R-based lines, not shown
[7] = target: EGFR T790M/exon 19 deletion mutant (T790M/del19) expressing Ba/F3 cells (Homo sapiens, UniProt P00533, DEL746-750/T790M, cells depend on it); test: CellTiter-Glo cell viability, Ba/F3 EGFR mutant
[8] = tested on: phosphorylation of EGFR and downstream signal transductions in triple-mutant expressing PC9 cell line; test: Western blotting of EGFR signal, PC9 triple-mutant; assay type: cell-based, human; conditions: FIG. 10C, 10D
[9] = target: EGFR exon 19 deletion mutant (del19) expressing Ba/F3 cells (Homo sapiens, UniProt P00533, DEL746-750, cells depend on it); test: CellTiter-Glo cell viability, Ba/F3 EGFR mutant
adenocarcinoma = conditions: cited from earlier work
[10] = tested on: exon 19 deletion mutation; conditions: cited from earlier work
[11] = tested on: Ba/F3 cells expressing the T790M/del19 mutant; test: SCID mice transplanted with EGFR mutant expressing Ba/F3; conditions: 50 mg/kg osimertinib, 75 mg/kg brigatinib, oral once daily; FIG. 12B
[12] = tested on: phosphorylation of EGFR and downstream signal transductions in T790M/del19 Ba/F3 cells; test: Western blotting of EGFR phosphorylation and downstream signal; assay type: cell-based, mouse; conditions: 10, 100, 1000 nM; FIG. 2E
[13] = tested on: T790M/exon 19 deletion mutant expressing PC9 cell line; assay type: cell-based, human
[14] = tested on: A431 wherein EGFR is amplified; test: Cell growth of wild type EGFR expressing cells; assay type: cell-based, human; conditions: FIG. 11
Experimental: The analysis was carried out using A431 wherein EGFR is amplified and A549 and H460 which have a mutation at K-ras. A431 is a cell line derived from a human epithelioid cell cancer and A549 and H460 are cell lines derived from human lung cancers. Note that, EGFR has no mutations despite A431 being amplified, and EGFR also has no mutations in A549 and H460.

[15] = tested on: phosphorylation of EGFR and downstream signal transductions in L858R mutant expressing Ba/F3 cells; test: Western blotting of EGFR phosphorylation and downstream signal; assay type: cell-based, mouse; conditions: FIG. 4A
[16] = tested on: EGFR T790M/exon19 deletion mutant expressing PC9 cells; test: Balb-c nu/nu mice transplanted with EGFR mutant expressing PC9; assay type: in vivo, mouse
Experimental: The tumor volume was measured in the same manner as above.
The results are shown from 2 mice per group.

[17] = tested on: human lung cancer cell line PC9 (EGFR exon 19 deletion mutant); assay type: cell-based
[18] = tested on: phosphorylation of EGFR and downstream signal transductions in T790M/L858R mutant expressing Ba/F3 cells; test: Western blotting of EGFR phosphorylation and downstream signal; assay type: cell-based, mouse; conditions: FIG. 4B
[19] = read-out: IC50 (nM) T/D, Table 4, ALK inhibitors, T790M/del19
[20] = read-out: IC50 (nM) Del19, Table 4, ALK inhibitors

EGFR T790M/L858R mutant expressing Ba/F3 cells, sequence (P00533 whole entry T790M/L858R): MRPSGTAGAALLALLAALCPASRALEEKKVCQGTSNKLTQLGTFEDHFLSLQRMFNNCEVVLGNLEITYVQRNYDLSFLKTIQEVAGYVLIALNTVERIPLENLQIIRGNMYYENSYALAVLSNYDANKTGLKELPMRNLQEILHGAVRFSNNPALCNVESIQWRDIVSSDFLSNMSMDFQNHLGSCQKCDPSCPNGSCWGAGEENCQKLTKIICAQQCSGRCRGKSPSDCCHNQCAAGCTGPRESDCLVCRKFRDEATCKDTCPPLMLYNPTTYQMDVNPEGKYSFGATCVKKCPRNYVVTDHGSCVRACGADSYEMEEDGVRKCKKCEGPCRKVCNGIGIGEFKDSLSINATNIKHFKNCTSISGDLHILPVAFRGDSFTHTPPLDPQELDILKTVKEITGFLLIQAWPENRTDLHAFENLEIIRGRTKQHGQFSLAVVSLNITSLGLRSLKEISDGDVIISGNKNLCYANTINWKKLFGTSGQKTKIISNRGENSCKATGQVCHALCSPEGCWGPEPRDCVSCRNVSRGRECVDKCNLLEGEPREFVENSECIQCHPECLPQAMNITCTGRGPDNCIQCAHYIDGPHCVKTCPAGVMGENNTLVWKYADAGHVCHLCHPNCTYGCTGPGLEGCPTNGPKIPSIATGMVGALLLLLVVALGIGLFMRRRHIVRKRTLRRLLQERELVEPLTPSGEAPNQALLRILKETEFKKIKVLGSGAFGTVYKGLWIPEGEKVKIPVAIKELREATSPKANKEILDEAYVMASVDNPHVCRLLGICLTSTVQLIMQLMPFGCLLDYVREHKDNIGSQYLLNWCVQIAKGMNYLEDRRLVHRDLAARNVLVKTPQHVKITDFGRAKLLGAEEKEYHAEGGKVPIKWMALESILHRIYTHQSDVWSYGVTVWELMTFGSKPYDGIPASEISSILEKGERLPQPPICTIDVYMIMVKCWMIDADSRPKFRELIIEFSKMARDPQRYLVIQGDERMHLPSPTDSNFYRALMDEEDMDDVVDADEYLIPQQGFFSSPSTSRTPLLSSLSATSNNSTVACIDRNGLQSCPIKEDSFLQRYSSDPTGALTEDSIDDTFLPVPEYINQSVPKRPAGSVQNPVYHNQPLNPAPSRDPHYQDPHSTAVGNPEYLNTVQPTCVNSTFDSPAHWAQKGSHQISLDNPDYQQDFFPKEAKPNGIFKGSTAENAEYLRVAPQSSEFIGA
EGFR T790M/exon 19 deletion mutant (T790M/del19) expressing Ba/F3 cells, sequence (P00533 with tags, fused parts or gaps DEL746-750/T790M): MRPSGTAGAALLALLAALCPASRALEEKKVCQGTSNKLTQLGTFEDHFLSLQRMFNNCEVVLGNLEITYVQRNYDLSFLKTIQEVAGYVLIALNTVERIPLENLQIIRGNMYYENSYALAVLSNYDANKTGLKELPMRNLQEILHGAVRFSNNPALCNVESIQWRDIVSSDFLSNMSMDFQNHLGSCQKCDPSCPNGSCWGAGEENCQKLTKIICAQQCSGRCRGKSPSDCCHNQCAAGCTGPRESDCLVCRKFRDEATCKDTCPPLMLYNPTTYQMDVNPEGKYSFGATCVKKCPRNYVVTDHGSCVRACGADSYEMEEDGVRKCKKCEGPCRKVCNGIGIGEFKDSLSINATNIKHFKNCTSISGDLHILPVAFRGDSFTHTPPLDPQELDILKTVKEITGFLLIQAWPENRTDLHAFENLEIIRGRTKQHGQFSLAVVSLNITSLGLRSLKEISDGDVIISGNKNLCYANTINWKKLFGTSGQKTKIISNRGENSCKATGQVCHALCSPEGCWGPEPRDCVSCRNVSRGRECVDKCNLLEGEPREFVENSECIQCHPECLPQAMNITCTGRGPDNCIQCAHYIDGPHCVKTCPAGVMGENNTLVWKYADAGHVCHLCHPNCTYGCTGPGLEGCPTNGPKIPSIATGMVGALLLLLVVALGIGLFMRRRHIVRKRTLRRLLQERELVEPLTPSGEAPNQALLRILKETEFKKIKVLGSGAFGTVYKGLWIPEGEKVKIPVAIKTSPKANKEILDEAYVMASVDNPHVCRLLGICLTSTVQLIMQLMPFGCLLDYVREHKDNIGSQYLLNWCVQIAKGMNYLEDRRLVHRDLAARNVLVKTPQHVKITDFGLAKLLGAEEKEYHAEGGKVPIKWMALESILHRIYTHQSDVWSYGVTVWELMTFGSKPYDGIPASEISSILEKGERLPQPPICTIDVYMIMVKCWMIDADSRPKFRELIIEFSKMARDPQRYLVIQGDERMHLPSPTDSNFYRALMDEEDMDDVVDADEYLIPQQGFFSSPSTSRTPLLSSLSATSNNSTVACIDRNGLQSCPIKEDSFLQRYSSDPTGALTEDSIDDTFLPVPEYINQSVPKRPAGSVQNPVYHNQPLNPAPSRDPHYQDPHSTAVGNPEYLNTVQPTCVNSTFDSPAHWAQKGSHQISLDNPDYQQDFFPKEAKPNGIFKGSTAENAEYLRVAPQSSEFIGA
EGFR L858R mutant expressing Ba/F3 cells, sequence (P00533 whole entry L858R): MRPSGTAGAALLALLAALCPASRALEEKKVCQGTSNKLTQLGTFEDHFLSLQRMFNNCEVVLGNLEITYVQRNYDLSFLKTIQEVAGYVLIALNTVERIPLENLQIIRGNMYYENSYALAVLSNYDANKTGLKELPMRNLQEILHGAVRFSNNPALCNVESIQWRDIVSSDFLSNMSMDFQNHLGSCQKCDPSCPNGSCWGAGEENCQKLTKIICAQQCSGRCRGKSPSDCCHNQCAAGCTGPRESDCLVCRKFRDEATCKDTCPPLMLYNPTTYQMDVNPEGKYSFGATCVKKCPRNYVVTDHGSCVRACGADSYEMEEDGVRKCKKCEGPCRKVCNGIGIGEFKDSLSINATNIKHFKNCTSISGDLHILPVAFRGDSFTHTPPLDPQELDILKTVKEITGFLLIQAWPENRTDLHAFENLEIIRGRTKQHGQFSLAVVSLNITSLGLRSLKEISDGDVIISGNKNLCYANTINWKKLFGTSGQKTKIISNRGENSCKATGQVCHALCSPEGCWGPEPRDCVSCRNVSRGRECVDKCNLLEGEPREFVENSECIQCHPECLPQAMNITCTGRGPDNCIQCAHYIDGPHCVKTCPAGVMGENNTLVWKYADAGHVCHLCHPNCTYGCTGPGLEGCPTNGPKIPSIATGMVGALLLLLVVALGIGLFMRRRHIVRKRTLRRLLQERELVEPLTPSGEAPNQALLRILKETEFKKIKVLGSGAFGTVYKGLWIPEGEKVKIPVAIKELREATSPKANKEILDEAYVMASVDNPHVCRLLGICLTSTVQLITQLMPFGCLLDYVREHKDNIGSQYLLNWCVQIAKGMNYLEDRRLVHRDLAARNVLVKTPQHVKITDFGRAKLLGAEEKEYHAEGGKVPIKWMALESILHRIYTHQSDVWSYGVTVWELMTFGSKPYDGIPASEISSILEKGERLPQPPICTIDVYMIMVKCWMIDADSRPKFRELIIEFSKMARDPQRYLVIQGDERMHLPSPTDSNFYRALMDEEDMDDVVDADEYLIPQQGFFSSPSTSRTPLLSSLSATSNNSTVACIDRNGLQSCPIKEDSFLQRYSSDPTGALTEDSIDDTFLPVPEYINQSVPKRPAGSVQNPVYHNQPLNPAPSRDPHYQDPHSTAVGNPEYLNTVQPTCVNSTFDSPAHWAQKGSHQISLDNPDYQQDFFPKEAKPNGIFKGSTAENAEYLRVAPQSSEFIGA
EGFR exon 19 deletion mutant (del19) expressing Ba/F3 cells, sequence (P00533 with tags, fused parts or gaps DEL746-750): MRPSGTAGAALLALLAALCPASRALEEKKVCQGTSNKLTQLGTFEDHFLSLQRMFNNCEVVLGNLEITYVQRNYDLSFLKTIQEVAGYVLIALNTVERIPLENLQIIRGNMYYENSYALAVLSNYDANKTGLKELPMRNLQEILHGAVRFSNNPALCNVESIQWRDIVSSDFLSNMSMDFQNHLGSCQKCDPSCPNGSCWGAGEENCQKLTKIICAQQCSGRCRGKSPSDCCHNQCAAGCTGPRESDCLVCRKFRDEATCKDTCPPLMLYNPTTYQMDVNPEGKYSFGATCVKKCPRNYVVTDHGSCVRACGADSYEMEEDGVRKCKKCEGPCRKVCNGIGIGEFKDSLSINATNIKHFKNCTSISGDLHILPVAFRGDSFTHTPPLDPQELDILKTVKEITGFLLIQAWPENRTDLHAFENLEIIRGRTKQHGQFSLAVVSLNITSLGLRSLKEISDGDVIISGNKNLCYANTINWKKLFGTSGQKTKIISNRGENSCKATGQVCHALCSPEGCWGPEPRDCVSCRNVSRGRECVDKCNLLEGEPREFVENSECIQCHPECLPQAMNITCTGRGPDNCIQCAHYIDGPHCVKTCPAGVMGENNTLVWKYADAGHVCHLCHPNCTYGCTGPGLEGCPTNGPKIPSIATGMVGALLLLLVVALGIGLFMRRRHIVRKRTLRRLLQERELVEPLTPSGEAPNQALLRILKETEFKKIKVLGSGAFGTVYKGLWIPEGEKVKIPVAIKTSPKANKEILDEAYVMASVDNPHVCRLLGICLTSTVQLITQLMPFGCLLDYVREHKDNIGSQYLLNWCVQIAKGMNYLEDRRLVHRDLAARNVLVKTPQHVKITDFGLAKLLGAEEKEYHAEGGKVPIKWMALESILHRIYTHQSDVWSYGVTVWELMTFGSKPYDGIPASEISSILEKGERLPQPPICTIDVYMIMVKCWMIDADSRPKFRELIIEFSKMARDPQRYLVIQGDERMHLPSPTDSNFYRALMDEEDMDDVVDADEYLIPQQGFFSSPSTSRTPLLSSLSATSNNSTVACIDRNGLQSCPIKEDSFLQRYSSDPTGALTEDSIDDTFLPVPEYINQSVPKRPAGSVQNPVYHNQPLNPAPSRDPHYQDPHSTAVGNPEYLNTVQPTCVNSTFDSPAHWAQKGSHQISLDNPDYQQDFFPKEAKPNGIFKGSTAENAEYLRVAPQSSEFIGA

| SMILES | cell growth suppression effect on Ba/F3 with EGFR mutant having any of the mutations (in words) [1] | suppression of phosphorylation of EGFR and downstream signal (in words) [2] | GI50 [3] [nM] | GI50 ([4]; Table 5, ALK inhibitors) [nM] | suppression of phosphorylation of EGFR and downstream signal (in words) [5] | inhibitory activity against the EGFR signal transductions (in words) [6] | GI50 [7, 19] [nM] | suppression of phosphorylation of EGFR and downstream signal (in words) [8] | GI50 [9, 20] [nM] | other results |
| --- | --- | --- | --- | --- | --- | --- | --- | --- | --- | --- |
| COc1cc(N2CCC(N(C)C)CC2)ccc1Nc1ncc(Cl)c(Nc2ccccc2P(C)(C)=O)n1 [AP26113-analogue, AP26113-analog] | strong cell growth suppression effects | the effect was weaker compared to afatinib | 36 | 92.1 | equal suppression effect to brigatinib | demonstrated the inhibitory activity against the EGFR signal transductions | 139 | demonstrated the suppression effects on the phosphorylation of EGFR | 36.9 |  |
| Cc1cc(Nc2ncc(Cl)c(Nc3ccccc3S(=O)(=O)C(C)C)n2)c(OC(C)C)cc1C1CCNCC1 [ceritinib] | did not substantially demonstrate the cell growth suppression effect |  | 685 | 1160 |  | did not substantially demonstrate the inhibitory effect on the EGFR signal transductions even when treated at a high concentration of 1 μM |  |  | 524 |  |
| COc1cc(N2CCC(N3CCN(C)CC3)CC2)ccc1Nc1ncc(Cl)c(Nc2ccccc2S(=O)(=O)C(C)C)n1 [TAE684] | did not substantially demonstrate the cell growth suppression effect |  |  |  |  | did not substantially demonstrate the inhibitory effect on the EGFR signal transductions even when treated at a high concentration of 1 μM |  |  |  |  |
| COc1cc2ncnc(Nc3ccc(F)c(Cl)c3)c2cc1OCCCN1CCOCC1 [gefitinib] |  |  |  |  |  |  |  |  |  | PFS (progression-free survival) (adenocarcinoma; EGFR gene mutation-positive group): 9.5 months; PFS (progression-free survival) (adenocarcinoma; mutation negative group): 1.5 months |
| O=C(Nc1nccs1)C(c1cc(F)ccc1O)N1Cc2ccccc2C1=O (centres unmarked) [EAI045] |  |  |  |  |  |  |  |  |  | effectiveness on the exon 19 deletion mutation (in words) [10]: not effective on the exon 19 deletion mutation |
| COc1cc(N2CCC(N3CCN(C)CC3)CC2)ccc1Nc1ncnc(Nc2ccccc2S(=O)(=O)C(C)C)n1 [ASP3026] | did not substantially demonstrate the cell growth suppression effect |  | 1690 | 948 |  | did not substantially demonstrate the inhibitory effect on the EGFR signal transductions even when treated at a high concentration of 1 μM | 2170 |  | 450 |  |
| COc1cc(N2CCC(N3CCN(C)CC3)CC2)ccc1Nc1ncc(Cl)c(Nc2ccccc2P(C)(C)=O)n1 [brigatinib] |  |  |  |  |  |  |  |  |  | GI50 ([4]; egfr l858r mutant expressing ba/f3 cells): 207 nM and 133 nM; GI50 ([7]; read-out: IC50 (nM) T790M/del19, egfr t790m/exon 19 deletion mutant (t790m/del19) expressing ba/f3 cells): 150 nM; GI50 ([7]; read-out: IC50 (nM) T/D, egfr t790m/exon 19 deletion mutant (t790m/del19) expressing ba/f3 cells): 150 nM; GI50 ([9]; read-out: IC50 (nM) Del19, egfr exon 19 deletion mutant (del19) expressing ba/f3 cells): 43.7 nM; GI50 ([9]; read-out: IC50 (nM) del19, egfr exon 19 deletion mutant (del19) expressing ba/f3 cells): 43.7 nM |
| C=CC(=O)Nc1cc(Nc2nccc(-c3cn(C)c4ccccc34)n2)c(OC)cc1N(C)CCN(C)C [osimertinib] |  | also very strongly suppressed the phosphorylation |  |  | demonstrated the effects of suppressing the phosphorylation |  |  | neither of afatinib, osimertinib, or gefitinib demonstrated the suppression effect |  | tumor growth suppression effect (tumor volume, in words) [11]: had the effect; suppression of phosphorylation of EGFR and downstream signal (in words) [12]: strongly suppressed the phosphorylation of EGFR; cell growth suppression effect (in words) [13]: extremely strong cell growth suppression effect; cell growth suppression (in words) [14]: suppress the cell growth; suppression of phosphorylation of EGFR and downstream signal (in words) [15]: suppression effect, despite being weaker than afatinib; effect on the tumor growth (tumor volume, in words) ([16]; 50 mg/kg osimertinib, 75 mg/kg brigatinib, oral once daily, FIG. 13A): notable effect on the tumor growth; survival (Kaplan-Meier, in words) ([16]; FIG. 13B): alive during the observation period; cell growth suppression effect (in words) [17]: demonstrated the cell growth suppression effects; suppression of phosphorylation of EGFR and downstream signal (in words) [18]: strongest suppression effect |
| COc1cc(N2CCC(N)CC2)ccc1Nc1ncc(Cl)c(-c2c[nH]c3ccccc23)n1 [AZD3463] | strong cell growth suppression effects | confirmed to have the effect of suppressing the phosphorylation of EGFR | 184 | 287 | confirmed to have the effect of suppressing the phosphorylation of EGFR |  | 175 | had the effect of suppressing the phosphorylation of the EGFR signal transductions | 90 |  |
